Measurements reported in patent US12728173B2, “Heptamethine cyanine near-infrared fluorescent dye, preparation method therefor and use thereof” (NANJING NUOYUAN MEDICAL DEVICES CO., LTD, priority 2024, dated 2026).

Key:
[1] = Subcutaneous HepG2 tumor-bearing mouse models for in vivo imaging; conditions: tail vein, 0.5 mg/kg
Description: Subcutaneous HepG2 Tumor-Bearing Mouse Models (Human-Derived Liver Cancer Cells) for In Vivo Imaging
Test samples: the heptamethine cyanine near-infrared fluorescent dyes provided by Examples 1-4, and the heptamethine cyanine near-infrared fluorescent dyes provided by Comparative Examples 1-3.
Testing method: The subcutaneous HepG2 tumor-bearing mouse models were subjected to tail vein administration of the above samples (0.5 mg/kg, 100 μL of glucose injection), respectively. Indocyanine green (0.5 mg/kg, 100 μL of glucose injection) was taken as a control. After the administration, fluorescence imaging was performed using a surgical fluorescence imaging system (NANJING NUOYUAN MEDICAL DEVICES CO., LTD, 10B), at 0 h (before administration), 6 h, 12 h, 24 h, and 48 h in sequence.

tumor tissues = conditions: prior art CN111196896A; cited from earlier work

hepatic accumulation and metabolism [1]: hepatic accumulation and non-metabolism
SMILES: CC1(C)C(/C=C/C2=C(Cl)C(=C/C=C3/N(CCCS(=O)(=O)O)c4ccccc4C3(C)C)/CCC2)=[N+](CCCS(=O)(=O)O)c2ccc(S(=O)(=O)O)cc21 [Comparative Example 1]
hepatic accumulation (tumor tissues): deficiency of hepatic accumulation
tumor retention (tumor tissues): exceeding 48 h
tumor targeting capability compared with ICG (tumor tissues): stronger
